Literature values in patent publication US6475478B2, “Adsorbent, adsorbing and removing process and adsorber for endogenous cannabinoid” (Kaneka Corporation, priority 2000, dated 2002).

Details: octanol-water system; compound fixed on the carrier

Row | SMILES | log P
1 | CCCCN [n-butyl amine] | 0.97
2 | CCCCCCCCCCN [n-decyl amine] | 4.07
